Experimental data published in patent US9872493B2, “Method for promoting plant growth” (SUMITOMO CHEMICAL COMPANY, LIMITED, priority 2012, dated 2018).

Experiments:
Nicotiana benthamiana = experiment: Test for evaluating growth promotion under low-temperature stress by hydroponics of Nicotiana benthamiana (Test Examples 4-6); type: in vivo; conditions: 7 days at 1.5±1.0° C. low-temperature stress, then 3 days at 22° C., green leaf area vs untreated control, read-out: value of a relative leaf area (equation (1)); for relative green leaf area after low-temperature stress at 1 ppm: compound at 1 ppm; for relative green leaf area after low-temperature stress at 0.1 ppm: compound at 0.1 ppm; for relative green leaf area after low-temperature stress at 10 ppm: compound at 10 ppm
Protocol: A DMSO solution, which contained one of the compounds 5, 14, 22, 23, 24, 25, 26, 28, 30, 31, 32, 33, 34, 35, 38, 39 and 40 of the present invention at a concentration of 10,000 ppm, was prepared. The DMSO solution of the compound of the present invention was added at a volume ratio of 1/1,000 to the Murashige•Scoog medium of a ½-fold concentration (a medium containing 2.3 g of mixed salts (manufactured by Wako Pure Chemical Industries, Ltd.), 200 mg of Myo-inositol (manufactured by Sigma-Aldrich Co. LLC.), 2 mg of nicotinic acid (manufactured by Wako Pure Chemical Industries, Ltd.), 2 mg of pyridoxine hydrochloride (manufactured by Wako Pure Chemical Industries, Ltd.), 20 mg of thiamine hydrochloride (manufactured by Wako Pure Chemical Industries, Ltd.), 20 g of sucrose (manufactured by Wako Pure Chemical Industries, Ltd.), and 1 g of MES (manufactured by DOJINDO LABORATORIES) per 1 L of water and having pH adjusted to 5.8), thereby preparing a medium containing the compound of the present invention at a concentration of 10 ppm.
Seeds of Nicotiana benthamiana were seeded in the 5 μL of the medium and cultured overnight at 22° C. Thereafter, 45 μL of the medium containing the compound of the present invention at a concentration of 10 ppm was added thereto, and the seeds are cultivated for 7 days at 22° C., an illuminance of 4,000 lux, and a day length of 16 hours, thereby the nursery plants raised from the Nicotiana benthamiana were treated with the compound.
Moreover, instead of the above medium a test plot, which was obtained by performing the same treatment by using a medium prepared by adding DMSO to the Murashige•Scoog medium of ½-fold concentration at a volume ratio of 1/1,000, was used as a control plot not treated with the compound.
The nursery plants of the Nicotiana benthamiana treated with the compound were subjected to low-temperature treatment by being cultivated for 7 days at 1.5±1.0° C., an illuminance of 2,000 lux, and a day length of 16 hours.
The nursery plants of the Nicotiana benthamiana having undergone the low-temperature stress treatment were cultivated for 3 days at 22° C., an illuminance of 4,000 lux, and a day length of 16 hours. Thereafter, the area of green leaf was quantified by Scanalyzer HTS (manufactured by LemnaTec GmbH). Moreover, the value of the control plot not treated with the compound that had not yet been subjected to the low-temperature stress treatment was measured in the same manner. A value of a relative leaf area was calculated based on the following equation (1), and if the value of a relative leaf area was 5 or greater, the compound was evaluated to have a mitigating effect. As a result of the evaluation, it was confirmed that when the plant was treated with one of the compounds 5, 14, 22, 23, 24, 25, 26, 28, 30, 31, 32, 33, 34, 35, 38, 39 and 40 of the present invention at 10 ppm, the value of a relative leaf area was 5 or greater, compared to the area of green leaf of the control plot not treated with compound. Accordingly, it was confirmed that the treatment using the compound of the present invention brings about a growth promotion effect. Relative leaf area=100*(a green area of a plot treated with the compound of the present invention−a green area of a control plot not treated with the compound of the present invention)/(a green area of a control plot not treated with the compound of the present invention that has not yet been subjected to low-temperature stress treatment−a green area of a control plot not treated with the compound of the present invention) Equation (1): […]
A DMSO solution, which contained one of the compounds 6, 7, 8, 11, 12, 15, 19, 23, 24, 25, 28, 30, 31, 33, 34, 36, 37, 38 and 39 of the present invention at a concentration of 1,000 ppm, was prepared. […]

[1] = test system: Rice (Variety: Nipponbare); experiment: Test for evaluating promotion of root growth by hydroponics of rice (Test Examples 1-3); type: in vivo
Protocol: Rice (Variety: Nipponbare)
(§1) A DMSO solution, which contained one of the compounds 14, 18, 21, 23, 26, 28, 29, 30, 35, 36, 37, 39 and 40 of the present invention at a concentration of 100,000 ppm, was added to Hoagland hydroponic solution (Hoagland and Arnon, California Agricultural Experiment Station 1950 Circular 347 pp. 34) of ¼-fold concentration at a volume ratio of 1/10,000. In this manner, hydroponic solutions containing one of the compounds 14, 18, 21, 23, 26, 28, 29, 30, 35, 36, 37, 39 and 40 of the present invention at 10 ppm were prepared respectively. As an untreated control plot, a hydroponic solution obtained by adding DMSO to Hoagland hydroponic solution of ¼-fold concentration at a volume ratio of 1/10,000 was used.
(§2) Rice seeds were soaked in a 1% aqueous sodium hypochlorite solution for 10 minutes, then soaked in a 70% ethanol solution for surface sterilization, and then washed with distilled water. The sterilized seeds were soaked in a hydroponic solution containing the test compound described above at 10 ppm and incubated in a dark place for 3 days at 28° C. to perform treatment for hastening germination.
(§3) Thereafter, 30 ml of hydroponic solution containing the test compound at 10 ppm was dispensed in a plastic tube (diameter of 20 mm×height of 113 mm) of which the side was covered with cardboard to block light. A float prepared using a styrene board and vinyl mesh was floated, and the rice seeds that had undergone the treatment for hastening germination were placed on the float on the surface of the hydroponic solution. The seeds were cultivated for 3 days at 26° C., an illuminance of 4,000 lux of the top surface of the tube, a humidity of 50%, and a day length of 16 hours.
The nursery plants of rice obtained after cultivating were measured in terms of the length of seminal root by using WinRHIZO system (manufactured by Regent Instruments Inc). For each test plot, an average of the measured values of the seminal root of 4 or 5 individuals were determined.
as §1, with “compounds 7, 8, 9, 10, 12, 17, 20,” for “compounds 14, 18,”, “21, 25, 27,” for “21, 23, 26,”, “30, 34,” for “30,”, “37, 38,” for “37,”, “of 10,000” for “of 100,000”, “at 1” for “at 10”
as §2, with “at 1” for “at 10”
as §3, with “1” for “10”
The nursery plants of rice obtained after cultivation were measured in terms of the length of seminal root by using WinRHIZO system (manufactured by Regent Instruments Inc). […]

SMILES | relative green leaf area after low-temperature stress at 1 ppm (Nicotiana benthamiana) [%] | length of seminal root compared with the untreated control plot (in words) ([1]; 1 ppm) | length of seminal root compared with the untreated control plot (in words) ([1]; 0.1 ppm) | relative green leaf area after low-temperature stress at 0.1 ppm (Nicotiana benthamiana) [%] | relative green leaf area after low-temperature stress at 10 ppm (Nicotiana benthamiana) [%] | length of seminal root compared with the untreated control plot (in words) ([1]; 10 ppm)
NC(=O)c1cccc2ccsc12 [Compound 7, benzo[b]thiophene-7-carboxamide] | ≥ 5 | obviously longer |  |  |  | 
O=C(O)c1c(C(F)(F)F)sc2ccccc12 [Compound 15, 2-trifluoromethylbenzo[b]thiophene-3-carboxylic acid] | ≥ 5 |  | obviously longer |  |  | 
COC(=O)c1csc2ccccc12 [Compound 12, methyl benzo[b]thiophene-3-carboxylate] | ≥ 5 | obviously longer |  |  |  | 
NC(=O)c1csc2cc(C(F)(F)F)ccc12 [Compound 30] | ≥ 5 | obviously longer | obviously longer | ≥ 5 | ≥ 5 | obviously longer
O=C(O)c1cccc2cc(C(F)(F)F)sc12 [Compound 9, 2-trifluoromethylbenzo[b]thiophene-7-carboxylic acid] |  | obviously longer |  | ≥ 5 |  | 
O=C(Nc1ccccc1)c1c(C(F)(F)F)sc2ccccc12 [Compound 25] | ≥ 5 | obviously longer |  |  | ≥ 5 | 
COC(=O)c1cccc2ccsc12 [Compound 8, methyl benzo[b]thiophene-7-carboxylate] | ≥ 5 | obviously longer |  |  |  | 
Cc1sc2ccccc2c1C(=O)O [Compound 20] |  | obviously longer | obviously longer | ≥ 5 |  | 
O=C(O)c1csc2ccc(C(F)(F)F)cc12 [Compound 13, 5-trifluoromethylbenzo[b]thiophene-3-carboxylic acid] |  |  | obviously longer | ≥ 5 |  | 
O=C(NCc1ccccc1)c1csc2c(C(F)(F)F)cccc12 [Compound 40] |  | obviously longer |  |  | ≥ 5 | obviously longer
NC(=O)c1csc2c(C(F)(F)F)cccc12 [Compound 37] | ≥ 5 | obviously longer | obviously longer |  |  | obviously longer
O=C(NCc1ccccc1)c1c(C(F)(F)F)sc2ccccc12 [Compound 26] |  |  | obviously longer | ≥ 5 | ≥ 5 | obviously longer
COC(=O)c1cccc2cc(C(F)(F)F)sc12 [Compound 10, methyl 2-trifluoromethylbenzo[b]thiophene-7-carboxylate] |  | obviously longer |  | ≥ 5 |  | 
CNC(=O)c1csc2cc(C(F)(F)F)ccc12 [Compound 31] | ≥ 5 |  | obviously longer | ≥ 5 | ≥ 5 | 
COC(=O)c1csc2c(C(F)(F)F)cccc12 [Compound 35] |  | obviously longer | obviously longer | ≥ 5 | ≥ 5 | obviously longer
NC(=O)c1csc2cccc(C(F)(F)F)c12 [Compound 19] | ≥ 5 |  | obviously longer |  |  | 
NC(=O)c1cccc2sc(C(F)(F)F)cc12 [Compound 3, 2-trifluoromethylbenzo[b]thiophene-4-carboxamide] |  |  | obviously longer | ≥ 5 |  | 
